Test results as given in patent US10829519B2, “Angiotensin (1-7) analogs and methods relating thereto” (WAKE FOREST UNIVERSITY HEALTH SCIENCES, priority 2015, dated 2020).
Like-named read-outs stand apart in the source and are kept apart here. Where a SMILES comes first, the peptide text is derived from it. Bridges are numbered along the chain shown (N, C = ends). [ ]: non-standard residue; d: D form. Nle = CCCC[C@H](N)C(=O)O

Tests used:
[1] = Stability of peptides incubated in rat plasma at 37° C., HPLC; format: in vitro ADME
Experimental: The stability of the Ang(1-7) peptide analog TCAng04 (SEQ ID NO:5) was assessed in rat plasma. The peptide was incubated with rat plasma at 37° C. for 60 min (left) or 125 hours (right). The concentration of TCAng04 and Ang-(1-7) was determined by HPLC using verified standards. Ang-(1-7) was rapidly degraded following incubation in rat plasma with a half-life of about 30 min, similar to the pharmacokinetics observed in two clinical trials (FIG. 1B) (see Rodgers et al. Cancer Chemother Pharmacol 2006; 57:559-68; and Petty et al. Clinical Cancer Research 2009; 15:7398-404). Conversely, TCAng04 was stable under the same conditions, with a half-life in rat plasma of approximately 50 hours.

4T1 breast cancer cells [2] = test: In vivo inhibition of tumor growth by subcutaneous administration, orthotopic 4T1 model in BALB/C mice; design: species or system mouse
Experimental: The ability of TCAng05 to inhibit tumor growth in vivo was measured in an orthotopic model of human breast cancer, using 4T1 breast cancer cells. 4T1 cells (2.5×10^5 in saline) were injected into the 4th mammary fat pad of BALB/C mice. Tumor size was measured every 3 days using a caliper and tumor volume was calculated using the formula for a semi-ellipsoid. The tumors were allowed to grow until they reached a size of 100 mm^3, at which point subcutaneous treatment was started (Day 0). Primed osmotic mini-pumps were implanted into the subcutaneous space on the back of each mouse to deliver either saline, 24 μg/kg/h Ang-(1-7), 6 μg/kg/h TCAng05 (low), 12 μg/kg/h TCAng05 (medium), or 24 μg/kg/h TCAng05 (high). Mice were sacrificed on Day 21 of treatment. Five animals were used per treatment group. […] Treatment with Ang-(1-7) reduced tumor size 50%, to a final size of 495.5±110.8 mm^3. […] At the time of sacrifice, the mice were weighed and the tumors, heart and kidneys were weighed.

[3] = system: A549 human lung cancer cells; format: cell-based; conditions: 100 nM, analogs added on Day 0 (single dose), cell number
Experimental: (§1) To determine the effect of the peptide analogs on tumor cell growth, 100 nM Ang-(1-7) or analogs TCAng01-TCAng05 (SEQ ID NOs:2-6) were incubated with subconfluent monolayers of actively growing A549 human lung cancer cells or MDA-MB-231 human breast cancer cells in 24-well cluster plates for 6 to 10 days or 7 to 10 days. Assays were performed in duplicate for 4-14 replicates or 3-14 replicates, respectively. Cell number was counted using a Nexelcom Cellometer. […] Ang-(1-7) does inhibit the growth of human breast cancer cells (by 42.9±5.2%, n=6, over 6-10 days) and human lung cancer cells (by 53.1±7.1%, n=12, over 7-10 days) if it is added daily, as shown in FIG. 2 and FIG. 3.

[4] = system: MDA-MB-231 human breast cancer cells; format: cell-based; conditions: 7 to 10 days; for reduction of cell growth / effect on MDA-MB-231 cell growth: 100 nM; for reduction of cell growth: analogs added on Day 0 (single dose), cell number; for effect on MDA-MB-231 cell growth: added once (Day 0/Day 1)
Experimental: as §1
A linear form of TCAng05 (L-TCAng05; SEQ ID NO:7) was tested to determine the influence of cyclization on the stability of the peptide. Subconfluent monolayers of MDA-MB-231 human breast cancer cells were incubated with 100 nM of Ang-(1-7), L-TCAng05, or TCAng05 for 7 to 10 days and cell number was counted using a Nexelcom Cellometer. Assays were performed in duplicate for 3-14 replicates. Ang-(1-7) was added daily, due to its rapid degradation.
Similar assays were performed to assess whether inhibition of cell growth by TCAng05 was mediated by the Ang-(1-7) receptor mas. Subconfluent monolayers of MDA-MB-231 human breast cancer cells were incubated with 100 nM of Ang-(1-7), added daily, or TCAng05, in the presence or absence of 1 μM Ang-(1-7) receptor antagonist D-Alanine^7-Ang-(1-7) [Dala] for 7 to 10 days and cell number was counted using a Nexelcom Cellometer. Assays were performed in duplicate for 4-14 replicates.

4T1 breast cancer cells [5] = format: in vivo, mouse; conditions: for final tumor volume: daily gavage, untreated 671.2±127.2
Experimental: The oral efficacy of TCAng05 to inhibit tumor growth in vivo was also measured using the orthotopic model of human breast cancer described in Example 4. 4T1 breast cancer cells were injected into the mammary fat pad of BALB/C mice (2.5×10^5 cells in saline). Tumor size was measured every 3 days using a caliper and tumor volume was calculated using the formula for a semi-ellipsoid. The tumors were allowed to grow until they reached a size of 100 mm^3, at which point treatment was started (Day 0). Mice received daily gavage of TCAng05 at one of three concentrations: 12 μg/kg/day (Low), 60 μg/kg/day (Medium), or 300 μg/kg/day (High). Mice were sacrificed on Day 21 of treatment. Treatment groups contained 3-4 animals. […] At the time of sacrifice, the tumors were weighed.

Ki67 = Ki67 immunohistochemistry of tumors from orally treated mice (cell proliferation); format: in vivo, mouse; conditions: oral TCAng05, 12, 60, 300 μg/kg/day
Experimental: (§2) To identify the molecular mechanisms for the reduction in tumor weight, tumors from mice that received oral TCAng05 (described in Example 5) were assessed for cell markers associated with cell proliferation, angiogenesis, and fibrosis. Tumors were fixed in 4% formalin, embedded in paraffin, sectioned at 5 microns, and analyzed by immunohistochemistry. Tumor tissue sections were visualized using a Leica DM microscope (Leica Microsystems, Bannockburn, Ill.) with the Simple PCI Version 6.0 computer-assisted imaging software (Hamamatsu Corporation, Sewickley, Pa.) and photographed with the Qlmaging Retiga 1300R Camera (Qlmaging Co. Surey, BC, Canada). The number of immunopositive cells is expressed as a percentage of the total cell number examined (100 cells counted from each tissue site within a tumor section).
Tumor sections were stained with an antibody specific for Ki67 to measure cell proliferation.

[6] = system: MDA-MB-231 human breast cancer cells; test: In vitro inhibition of MDA-MB-231 cell growth by analogs with amino acid substitutions (Example 7); format: cell-based; conditions: 100 nM, 8-10 days; for growth inhibition compared with Ang-(1-7) and TCAng05: added twice weekly
Experimental: To determine whether the novel analogs reduced tumor growth, subconfluent monolayers of actively growing MDA-MB-231 human breast cancer cells in 24-well cluster plates were incubated with 100 nM of Ang(1-7) (A7), TCAng05 (TC), or one of analogs NEP1-24 for 8-10 days. Ang-(1-7) was added daily as it is rapidly degraded while the Ang(1-7) analogs were added twice weekly at the time the cells were fed. Saline was used as control (C). Cell numbers were then counted using a Nexelcom Cellometer. Assays were performed in triplicate for 2-4 replicates.

CD34 = CD34 immunohistochemistry of tumors from orally treated mice (blood vessel density); format: in vivo, mouse; conditions: oral TCAng05
Experimental: as §2
Tumor sections were stained with an antibody specific for CD34 to label endothelial cells lining blood vessels and measure the density of blood vessels. […] In previous studies with orthotopic models, Ang-(1-7) reduced angiogenesis in mice with human lung tumors or human prostate tumors (Soto-Pantoj a et al., Mol Cancer Ther 2009; 8:1676-83; Krishnan et al., Prostate 2013; 73:60-70). This is in agreement with a reduction in the pro-angiogenic peptide platelet-derived growth factor (PDGF) in patients with solid tumors treated with Ang-(1-7) (Petty et al., BMC Cancer 2012; 12:404).

collagen = test: Picrosirius red collagen staining of tumors from orally treated mice (fibrosis); format: in vivo, mouse; conditions: oral TCAng05
Experimental: as §2
Tumor sections were stained with Picrosirius red to stain for collagen.

[7] = rat plasma, 37° C., HPLC, read-out: half-life in rat plasma (converted)

## CC[C@H](C)[C@H](NC(=O)[C@H](Cc1ccc(O)cc1)NC(=O)[C@@H](NC(=O)[C@H](CCCNC(=N)N)NC(=O)[C@@H](N)CC(=O)O)C(C)C)C(=O)N[C@@H](Cc1c[nH]cn1)C(=O)N1CCC[C@H]1C(=O)O [Ang-(1-7), DRVYIHP]
[1]; [7]
  half-life: ~30 min
[1]; read-out: half-life in plasma
  half-life: 30 min
4T1 breast cancer cells [2]; subcutaneous treatment, at sacrifice
  weight of the mice, size of hearts and kidneys: no change

## CC[C@H](C)[C@@H]1NC(=O)[C@H](Cc2ccc(O)cc2)NC(=O)[C@H](C(C)C)NC(=O)[C@H](CCCNC(=N)N)NC(=O)[C@H](CC(=O)O)NC(=O)C[C@@H](C(=O)N[C@@H](C(=O)N2CCC[C@@H]2C(N)=O)C(C)C)NC(=O)[C@@H]2CCCN2C(=O)[C@H](Cc2c[nH]cn2)NC1=O [TCAng04, cyc[DRVYIHPD](dV)(dP)-amide] (DRVYIHPD[dV][dP]-NH2; lactam N-8)
[3]
  reduction of cell growth: 33.7±12.3%
[1]; [7]
  half-life: ~3000 min
[4]
  reduction of cell growth: 51.5±5.4%

## Ac-(Nle)DRVYIHPK(dV)(dP)-amide (Ac-[Nle]DRVYIHPK[dV][dP]-NH2; SMILES CCCC[C@H](NC(C)=O)C(=O)N[C@@H](CC(=O)O)C(=O)N[C@@H](CCCNC(=N)N)C(=O)N[C@H](C(=O)N[C@@H](Cc1ccc(O)cc1)C(=O)N[C@H](C(=O)N[C@@H](Cc1c[nH]cn1)C(=O)N1CCC[C@H]1C(=O)N[C@@H](CCCCN)C(=O)N[C@@H](C(=O)N1CCC[C@@H]1C(N)=O)C(C)C)[C@@H](C)CC)C(C)C) [L-TCAng05, linear form of TCAng05]
[4]
  effect on MDA-MB-231 cell growth: ineffective

## [Lac(2,9)[Ac-(Nle)cyc[DRVYIHPK](dV)(dP)-amide (Ac-[Nle]DRVYIHPK[dV][dP]-NH2; lactam 2-9; not fully specified; printed as [Lac(2,9)[Ac-(Nle)cyc[DRVYIHPK](dV)(dP)-amide) [TCAng05]
[3]
  reduction of cell growth: 33.7±12.3%
4T1 breast cancer cells [5]; high dose 300 μg/kg/day
  final tumor volume: 378.3±151.2 mm^3
4T1 breast cancer cells [5]; low dose 12 μg/kg/day, oral
  effect of low dose: not significantly impact
4T1 breast cancer cells [5]; medium dose 60 μg/kg/day
  final tumor volume: 289.7±64.2 mm^3
4T1 breast cancer cells [5]; medium or high oral dose, at sacrifice
  tumor weight: reduced
4T1 breast cancer cells [5]; mouse, in vivo, po
  mouse weight, heart weight or kidney weight: no effect
Ki67
  Ki67 immunoreactivity in tumor sections: dose-dependent reduction
[6]; Ang-(1-7) added daily, analogs added twice weekly
  reduction of cell growth: 27.3±9.8%
CD34
  density of blood vessels (CD34) in tumor sections: significant reduction
collagen
  collagen staining (Picrosirius red) in tumor sections: reduced
4T1 breast cancer cells [2]; 24 μg/kg/h, subcutaneous osmotic mini-pump, saline 980.1±35.0
  final tumor size (volume): 259.1±19.2 mm^3
4T1 breast cancer cells [2]; 6, 12, 24 μg/kg/h subcutaneous
  tumor size across doses: dose-dependent reduction
4T1 breast cancer cells [2]; highest concentration (24 μg/kg/h), subcutaneous, at sacrifice
  reduction in tumor weight: 48%
4T1 breast cancer cells [2]; low (6 μg/kg/h) and medium (12 μg/kg/h) doses, subcutaneous
  effect of low and medium doses: not significantly impact
4T1 breast cancer cells [2]; mouse, in vivo, sc
  weight of the mice, size of hearts and kidneys: no change
[4]; 100 nM peptide plus 1 μM D-Alanine7-Ang-(1-7) [Dala]
  inhibition of growth in the presence of Ang-(1-7) receptor antagonist Dala: blocked
[4]
  effect on MDA-MB-231 cell growth: reduced growth
  reduction of cell growth: 51.5±5.4%

## [Lac(2,9)]Ac-(Nle)cyc[DRVYAHPK](dV)(dP)-amide (Ac-[Nle]DRVYAHPK[dV][dP]-NH2; lactam 2-9; not fully specified; printed as [Lac(2,9)]Ac-(Nle)cyc[DRVYAHPK](dV)(dP)-amide) [NEP4]
[6]
  growth inhibition compared with Ang-(1-7) and TCAng05: reduced cell growth comparably

## [Lac(2,9)]Ac-(Nle)cyc[DRVYIHP(Dab)](dV)(dP)-amide [NEP24]
[6]
  growth inhibition compared with Ang-(1-7) and TCAng05: reduced cell growth comparably

## [Lac(2,9)]Ac-(Nle)cyc[DRVYIHP(K)-amide] (Ac-[Nle]DRVYIHPK-NH2; lactam 2-9; not fully specified; printed as [Lac(2,9)]Ac-(Nle)cyc[DRVYIHP(K)-amide]) [NEP8]
[6]
  growth inhibition compared with Ang-(1-7) and TCAng05: reduced cell growth comparably

## [Lac(2,9)]Ac-(Nle)cyc[DRVYIHP(NMeK)](dV)(dP)-amide [NEP20]
[6]
  growth inhibition compared with Ang-(1-7) and TCAng05: reduced cell growth comparably

## [Lac(2,9)]Ac-(Nle)cyc[DRVYLHPK](dV)(dP)-amide (Ac-[Nle]DRVYLHPK[dV][dP]-NH2; lactam 2-9; not fully specified; printed as [Lac(2,9)]Ac-(Nle)cyc[DRVYLHPK](dV)(dP)-amide) [NEP12]
[6]
  growth inhibition compared with Ang-(1-7) and TCAng05: reduced cell growth comparably

## [Lac(2,9)]H2N-(Nle)cyc[DRVYIHPK](dV)(dP)-amide (H-[Nle]DRVYIHPK[dV][dP]-NH2; lactam 2-9; not fully specified; printed as [Lac(2,9)]H2N-(Nle)cyc[DRVYIHPK](dV)(dP)-amide) [NEP16]
[6]
  growth inhibition compared with Ang-(1-7) and TCAng05: reduced cell growth comparably
